Some results are limits rather than exact numbers.

Common to all, as to format: cell-based
One test relates to H9C2. Put plainly: Cell death protection, LDH release after RSL3. The following applies: H9C2, RSL3 0.5 μM, 24 hours. The method, then: (§1) To confirm the protective effect on cardiac cells, adrenal medulla cells, renal fibroblasts, retinal epithelial cells, lung epithelial cells, renal proximal tubule epithelial cells, hippocampal neurons, and fibroblasts, 4×10^3 to 1.2×10^4 cells of each cell type were dispensed into 96-well plates and cultured for 18 to 24 hours. Each well was treated with the example compound, which was diluted so that the final concentration became 0.001, 0.003, 0.01, 0.03, 0.1, 0.3, 1, 3, and 10 μM, and culture was performed for 15 to 20 minutes. […] To confirm the cell protecting effect of the example compounds, a cytotoxicity LDH assay kit [Dojindo; CK12] was used to measure the level of extracellular secretion of lactate dehydrogenase (LDH). Briefly, at the time point when the 24-hour treatment of each cell type with RSL3 ended, 70 μL of each supernatant from cell culture medium was taken and transferred to a new 96-well plate. After adding 70 μL/well (the same amount as the sample) of the assay buffer included in the kit, the resulting mixture was wrapped with foil and allowed to react at room temperature for 15 to 20 minutes. After observing the color change of the sample, 35 μL/well of a stop solution was added, and the absorbance value at 490 nm was measured using an iD3 spectrophotometer to calculate the EC50 value.
(§2) Table 3. Effect of protecting cardiac cells, adrenal medulla cells, renal fibroblasts, retinal epithelial cells, lung epithelial cells, renal proximal tubule epithelial cells, hippocampal neurons, and fibroblasts against cell death induced by RSL3.

For the next test, the system named is HT-22. Put plainly: Cell death protection, LDH release after RSL3. The conditions noted are these: HT-22, RSL3 0.3 μM, 24 hours. The method, then: as §1, §2
A general note: Release of lactate dehydrogenase indicates damage to the cell membrane.

The subject of the next test is NIH/3T3. The experiment in a line: Cell death protection, LDH release after RSL3. The following applies: 24 hours. The method, then: as §1, §2
The next test relates to NRK-49F. The experiment in a line: Cell death protection, LDH release after RSL3. The conditions noted are these: RSL3 3 μM, 24 hours. The method, then: as §1, §2
For another test, the system named is PC-12. Put plainly: Cell death protection, LDH release after RSL3. The conditions noted are these: PC-12, RSL3 0.3 μM, 24 hours. The method, then:
as §1, §2

The subject of test [1] is MLE-12 cells. Put plainly: Cytosolic lipid ROS (BODIPY 581/591 C11) after RSL3, Experimental Example 3-1. The conditions noted are these: MLE-12, 1 μM RSL3, 2 hours; tested 0.01-10 μM. The method, then: Experimental Example 3-1: To confirm the protective effect against cytosolic lipid reactive oxygen species in lung epithelial cells, 2×10^5 MLE-12 cells were dispensed into each well of a 12-well plate and cultured for 18 to 24 hours. Each well was treated with Example Compound 1 and ferrostatin-1, which were diluted so that their final concentration became 0.01, 0.1, 1, and 10 μM, and culture was performed for 15 minutes. Afterwards, the cells were treated so that the final concentration of RSL3 became 1 μM, and cultured for 2 hours. To confirm the inhibitory effect against cytosolic lipid reactive oxygen species, BODIPY™ 581/591 C11 (lipid peroxidation sensor) [Invitrogen™; D3861] was used. According to the manufacturer's experimental method, BODIPY™ 581/591 C11 was diluted in the cell culture medium so that the final concentration became 5 μM, and the cells were treated therewith and allowed to react for 30 minutes to perform fluorescent staining. The MLE-12 cells fluorescently stained with BODIPY™ 581/591 C11 were detached from the 12-well plate using 0.25% Trypsin-EDTA and transferred to a microtube, and the fluorescence (excitation/absorption 500 to 650 nm/510 to 665 nm) was measured using BD FACSLyric™ to calculate the rate of change compared to the control group.

Test [2] deals with MLE-12 cells. Put plainly: Mitochondrial ROS (MitoSOX) after RSL3. The following applies: MLE-12, 1 μM RSL3, 2 hours. The method, then:
To confirm the protective effect against mitochondrial reactive oxygen species in lung epithelial cells, 2×10^5 MLE-12 cells were dispensed into each well of a 12-well plate and cultured for 18 to 24 hours. Each well was treated with Example Compound 1 and ferrostatin-1, which were diluted so that their final concentration became 0.01, 0.1, 1, and 10 μM, and culture was performed for 15 minutes. Afterwards, the cells were treated so that the final concentration of RSL3 became 1 μM, and cultured for 2 hours. To confirm the inhibitory effect against mitochondrial reactive oxygen species, MitoSOX™ mitochondrial superoxide indicators (mitochondrial oxidative stress indicator) (MitoSOX) [Invitrogen™; C6827] was used. According to the manufacturer's experimental method, MitoSOX was diluted in the cell culture medium so that the final concentration became 5 μM, and the cells were treated therewith and allowed to react for 30 minutes to perform fluorescent staining. The MLE-12 cells fluorescently stained with MitoSOX were detached from the 12-well plate using 0.25% Trypsin-EDTA and transferred to a microtube, and the fluorescence (excitation/absorption ˜396 nm/610 nm) was measured using BD FACSLyric™ to calculate the rate of change compared to the control group (RSL3 untreated group).

Test [3] deals with MLE-12 cells. The experiment in a line: Cytosolic iron ion accumulation (FerroOrange, flow cytometry) after RSL3. The following applies: MLE-12, 1 μM RSL3, 8 hours. The method, then: (§3) To confirm the inhibitory effect against cytosolic iron ion accumulation in lung epithelial cells, 2×10^5 MLE-12 cells were dispensed into each well of a 12-well plate and cultured for 18 to 24 hours. Each well was treated with Example Compound 1 and ferrostatin-1, which were diluted so that their final concentration became 0.01, 0.1, 1, and 10 μM, and culture was performed for 15 minutes. Afterwards, the cells were treated so that the final concentration of RSL3 became 1 μM, and cultured for 8 hours. To confirm the inhibitory effect against cytosolic iron ion accumulation, FerroOrange [DOJINDO; F374] was used. According to the manufacturer's experimental method, FerroOrange was diluted in the cell culture medium so that the final concentration became 1 μM, and the cells were treated therewith and allowed to react for 30 minutes to perform fluorescent staining. The MLE-12 cells fluorescently stained with FerroOrange were detached from the 12-well plate using 0.25% Trypsin-EDTA and transferred to a microtube, and the fluorescence (excitation/absorption 580 nm/543 nm) was measured using BD FACSLyric™ to calculate the rate of change compared to the control group (RSL3 untreated group).
On the technique in general: A flow cytometer gives signals particle by particle.

Test [4] relates to MLE-12 cells. The experiment in a line: Mitochondrial iron ion accumulation (Mito-FerroGreen, flow cytometry) after RSL3. The following applies: MLE-12, 1 μM RSL3, 8 hours. The method, then:
as §3, with “mitochondrial” for “cytosolic”, “Mito-FerroGreen” for “FerroOrange”, “M489]” for “F374]”, “505 nm/535” for “580 nm/543”, “group.” for “group (RSL3 untreated group).”

As to `O=S1(=O)CCN(Cc2cc(NC3CCOCC3)c3[nH]c(-c4ccccc4)cc3c2)CC1` [Example 1, 5-[(1,1-dioxido-4-thiomorpholinyl)methyl]-2-phenyl-N-(tetrahydro-2H-pyran-4-yl)-1H-indole-7-amine], the concentration for a half-maximal effect (EC50) (commonly the midpoint of the concentration-response curve) in the test with H9C2 (Rattus norvegicus) is 0.03 to 0.1 µM; in the test on HT-22 (Mus musculus), no more than 0.03 µM; in the test on NIH/3T3 (Mus musculus, NIH3T3, NIH/3T3, RSL3 3 μM), 0.03 to 0.1 µM; in the test with NRK-49F (Rattus norvegicus) it was no more than 0.03 µM; with PC-12 (Rattus norvegicus), 0.03 to 0.1 µM. In the test with MLE-12 cells [1], the “concentration at which cytosolic lipid reactive oxygen species were significantly decreased” value is 0.1 µM. The “concentration at which mitochondrial reactive oxygen species were significantly decreased” value in the test on MLE-12 cells [2] came to 0.1 µM. In addition, the “concentration at which cytosolic iron ion accumulation was significantly decreased” value in the test on MLE-12 cells [3] was 0.1 µM. In addition, the “concentration at which mitochondrial iron ion accumulation was significantly decreased” value in the test on MLE-12 cells [4] is 0.01 µM.
For the compound `CCOC(=O)c1ccc(NC2CCCCC2)c(N)c1` [Fer-1, ferrostatin-1, reference compound], the EC50 is 0.03 to 0.1 µM in the test with H9C2; 0.03 to 0.1 µM in the test on HT-22; 0.03 to 0.1 µM in the test on NIH/3T3 (NIH/3T3, RSL3 3 μM); 0.03 to 0.1 µM in the test on NRK-49F; 0.03 to 0.1 µM in the test on PC-12. Further, the “concentration at which cytosolic lipid reactive oxygen species were significantly decreased” value in the test with MLE-12 cells [1] was 0.1 µM. In the test on MLE-12 cells [2], the “concentration at which mitochondrial reactive oxygen species were significantly decreased” value amounted to 0.1 µM. Moreover, the “concentration at which cytosolic iron ion accumulation was significantly decreased” value in the test on MLE-12 cells [3] was found to be 1 µM. Besides, in the test on MLE-12 cells [4], the “concentration at which mitochondrial iron ion accumulation was significantly decreased” value is 0.1 µM.

These data come from patent US20240269145A1, “USE OF INDOLE COMPOUND AS INHIBITORS OF FERROPTOSIS” (MITOIMMUNE THERAPEUTICS INC., priority 2023, published 2024).
